Results from publication PMC10113987, “A tool for nuclear imaging of the SARS-CoV-2 entry receptor: molecular model and preclinical development of ACE2-selective radiopeptides” (EJNMMI Research, 2023).
Positions of bridges follow the written chain, without caps; N, C: chain ends. Residues, ends and D or L forms follow the SMILES beside them. *: point of attachment. DOTA = O=C(O)CN1CCN(CC(=O)O)CCN(CC(=O)*)CCN(CC(=O)O)CC1; NODAGA = O=C(O)CN1CCN(CC(=O)O)CCN(C(CCC(=O)*)C(=O)O)CC1; Ahx = NCCCCCC(=O)O

Experiments:
FVB mice = test: In vivo stability in immunocompetent FVB mice (TLC of blood plasma, urine, kidneys); set-up: species or system mouse; settings: 1 h p.i.; for Radiometabolites in kidney homogenates: fraction of accumulated activity
Method: In order to investigate the stability of the radiopeptides, the ^67Ga-labeled DX600 peptides (20 MBq/nmol) were tested in immunocompetent FVB mice (10 MBq in 100 μL per mouse). Before sacrificing, blood was collected from each mouse 1 h after injection of the radiopeptides. After centrifugation, the blood plasma was analyzed using reversed phase TLC with citrate buffer (0.1 M, pH 5.5) as a mobile phase. The kidneys were collected and processed to investigate the presence of intact radiopeptides and potential metabolites using the same TLC system. The analysis of the chromatograms was performed as described for the in vitro plasma stability (Additional file 1).
Methods: Immunocompetent FVB mice were injected with the DX600-based radiopeptides (n=2). One hour later, urine was collected and blood was sampled from the retrobulbar vein followed by centrifugation (10 min, 200 rcf). A drop of urine and blood plasma was analyzed using the TLC method described for in vitro stability experiments above (reversed phase as stationary phase and citrate buffer pH 5.5 as mobile phase). The data were also confirmed using normal phase TLC. Kidneys of mice were collected, cut into small pieces, homogenized in 200 μL buffer solution (ice-cold methanol containing 0.025% NH4OH) and centrifuged (5 min, 2300 rcf, 4° C) as described by Boss et al.. An aliquot of the supernatant of each sample was developed using the same TLC method as for urine and blood plasma samples. The TLC plates were exposed to a phosphor screen which was afterwards read using a storage phosphor system (Cyclone Plus, PerkinElmer). The quantification of the signals was carried out using the OptiQuant software (version 5.0, Bright Instrument Co Ltd., PerkinElmer^TM). The obtained chromatograms were analyzed by determination of the peak area of the radiolabeled peptide, the released gallium-67 as well as degradation products of unknown structure. The quantity of the intact product was expressed as percentage of the sum of integrated peak areas of the entire chromatogram.

[1] = Stability of the radiopeptide formulated in saline (HPLC); format: physicochemical; settings: for Intact radiopeptide: 0.9% NaCl, room temperature, 20 MBq/nmol, 10 MBq/100 µL
Method: The purified [^67Ga]GaCl3 in HCl (~ 0.1 M) was added to a sodium acetate solution (0.5 M, pH 8) to obtain a buffered system of pH ~ 4. After adding the respective peptide (DOTA-DX600, NODAGA-DX600, HBED-CC-DX600 or DOTA-BPP9a) in a quantity to obtain the desired molar activity (5–20 MBq/nmol), the reaction mixture was incubated at 95 °C for 15 min. Quality control was performed using a Merck Hitachi LaChrom HPLC system (Additional file 1). The radiopeptides were used directly for in vitro and in vivo studies without further purification steps. The stability of the radiopeptides (20 MBq/nmol) formulated in 0.9% NaCl (10 MBq/100 µL) was assessed at room temperature (Additional file 1). The highest molar activity used in these studies was 20 MBq/nmol which means that one of 73–74 molecules was labeled with gallium-67. Nevertheless, the labeling efficiency of the DX600-based peptides was assessed using the highest possible molar activity that would still allow for the preparation of the DX600-based radiopeptide at a radiochemical purity of > 95% (Additional file 1).
Methods: The integrity of the radiopeptides (20 MBq/nmol), formulated in 0.9% NaCl (10 MBq/100 µL) and incubated at room temperature, was determined by HPLC using the system described above. The HPLC chromatograms were analyzed by determination of the peak area of the radiolabeled peptide, the released gallium-67, as well as degradation products of unknown structure. The quantity of the intact product was expressed as percentage of the sum of integrated peak areas of the entire chromatogram and set in relation to the original value determined at t = 0, which was set as 100%.

[2] = In vitro stability in human blood plasma (TLC); format: in vitro ADME; settings: 37 °C
Method: The ^67Ga-labeled DX600-radiopeptides (20 MBq/nmol) were incubated in human and mouse plasma (10 MBq/200 µL), respectively, at 37 °C. Aliquots were taken at variable time points up to 24 h for analysis using reversed phase thin layer chromatography (TLC) with citrate buffer (0.1 M, pH 5.5) as a mobile phase. Images of the TLC plates were obtained using a storage phosphor system (Cyclone Plus, PerkinElmer) and quantified using the OptiQuant software (version 5.0, Bright Instrument Co Ltd., PerkinElmer™) (Supplementary Information).
The radiopeptides were prepared and TLC experiments were performed immediately after radiolabeling by applying the diluted radiopeptides in saline (1 µL; ~0.05 MBq) and [^67Ga]GaCl3 solution (1 µL; ~0.05 MBq) on the TLC plates. The radiopeptides were incubated in mouse or human plasma (10 MBq/200 µL) at 37° C. TLC was performed with an aliquot of the plasma samples at the given timepoints (30 min, 1 h, 3 h and 24 h). The TLC plates were exposed to a phosphor screen followed by development using a storage phosphor system (Cyclone Plus, PerkinElmer). The quantification of the signals was carried out using the OptiQuant software (version 5.0, Bright Instrument Co Ltd., PerkinElmer^TM). The obtained chromatograms were analyzed by determination of the peak area of the radiolabeled peptide, the released gallium-67 as well as degradation products of unknown structure. The quantity of the intact product was expressed as percentage of the sum of integrated peak areas of the entire chromatogram.

ACE = target: T1, ACE (Homo sapiens, UniProt P12821); test: ACE-binding affinity (saturation binding on HEK-ACE cells); settings: on ice, 1 h
T1 construct: host or cells: HEK-293
Method: (§1) In order to determine the KD values of the DX600-based radiopeptides and [^67Ga]Ga-DOTA-BPP9a, HEK-ACE2 and HEK-ACE cells were seeded in 48-well-plates allowing adhesion and growth overnight. The cell samples were incubated with increasing concentrations (1‒2000 nM) of the radiopeptides (5 MBq/nmol) on ice. Some of the cell samples were co-incubated with an excess of cyclo-DX600 or lisinopril (20 µM, 10 nmol) to block ACE2 or ACE, respectively, enabling the determination of non-specific binding (Additional file 1). After 1 h incubation, the cells were rinsed with PBS and lysed with NaOH (1 M, 600 µL) to count the activity in a γ-counter. The KD values were determined by plotting specific binding (total binding minus unspecific binding) against the molar concentration of the added radiopeptide. A nonlinear regression analysis was performed using GraphPad Prism software (version 8.3.1).

ACE2 = target: T2, ACE2 (Homo sapiens, UniProt Q9BYF1); test: ACE2-binding affinity (saturation binding on HEK-ACE2 cells); settings: on ice, 1 h
T2 construct: host or cells: HEK-293
Method: as §1

T1 sequence (P12821 30-1306): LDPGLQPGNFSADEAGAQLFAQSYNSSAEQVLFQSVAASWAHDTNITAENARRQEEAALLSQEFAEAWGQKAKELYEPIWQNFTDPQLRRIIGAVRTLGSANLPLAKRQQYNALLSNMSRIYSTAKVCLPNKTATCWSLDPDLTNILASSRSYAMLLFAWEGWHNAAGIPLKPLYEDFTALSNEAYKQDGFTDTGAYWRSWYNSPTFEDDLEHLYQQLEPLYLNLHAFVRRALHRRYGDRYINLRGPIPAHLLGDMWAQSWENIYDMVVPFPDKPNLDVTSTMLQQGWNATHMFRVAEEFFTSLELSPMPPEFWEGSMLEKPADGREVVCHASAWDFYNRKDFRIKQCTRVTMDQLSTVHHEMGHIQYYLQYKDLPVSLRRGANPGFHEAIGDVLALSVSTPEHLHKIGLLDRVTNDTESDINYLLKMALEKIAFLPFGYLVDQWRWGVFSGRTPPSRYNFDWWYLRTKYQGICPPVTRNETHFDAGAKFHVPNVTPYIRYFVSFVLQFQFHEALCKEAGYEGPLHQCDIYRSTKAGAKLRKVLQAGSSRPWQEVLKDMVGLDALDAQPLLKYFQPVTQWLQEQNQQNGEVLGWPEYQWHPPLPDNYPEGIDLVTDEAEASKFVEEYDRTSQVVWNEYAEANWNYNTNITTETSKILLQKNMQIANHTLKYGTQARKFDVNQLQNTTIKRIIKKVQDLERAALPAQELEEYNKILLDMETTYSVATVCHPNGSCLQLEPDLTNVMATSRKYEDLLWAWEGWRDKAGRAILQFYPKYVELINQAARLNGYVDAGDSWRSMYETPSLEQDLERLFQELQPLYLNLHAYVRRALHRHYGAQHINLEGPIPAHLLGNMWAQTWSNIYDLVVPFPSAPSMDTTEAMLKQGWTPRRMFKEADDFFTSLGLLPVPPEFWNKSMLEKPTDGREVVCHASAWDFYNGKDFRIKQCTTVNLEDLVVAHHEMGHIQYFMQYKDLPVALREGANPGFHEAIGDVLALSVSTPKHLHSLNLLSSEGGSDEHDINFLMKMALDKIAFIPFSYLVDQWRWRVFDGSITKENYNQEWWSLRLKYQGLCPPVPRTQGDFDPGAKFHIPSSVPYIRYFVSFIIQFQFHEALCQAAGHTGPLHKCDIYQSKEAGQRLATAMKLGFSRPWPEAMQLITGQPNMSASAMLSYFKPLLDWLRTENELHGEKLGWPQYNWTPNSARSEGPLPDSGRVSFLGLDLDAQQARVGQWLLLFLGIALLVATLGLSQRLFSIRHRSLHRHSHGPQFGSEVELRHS
T2 sequence (Q9BYF1 18-805): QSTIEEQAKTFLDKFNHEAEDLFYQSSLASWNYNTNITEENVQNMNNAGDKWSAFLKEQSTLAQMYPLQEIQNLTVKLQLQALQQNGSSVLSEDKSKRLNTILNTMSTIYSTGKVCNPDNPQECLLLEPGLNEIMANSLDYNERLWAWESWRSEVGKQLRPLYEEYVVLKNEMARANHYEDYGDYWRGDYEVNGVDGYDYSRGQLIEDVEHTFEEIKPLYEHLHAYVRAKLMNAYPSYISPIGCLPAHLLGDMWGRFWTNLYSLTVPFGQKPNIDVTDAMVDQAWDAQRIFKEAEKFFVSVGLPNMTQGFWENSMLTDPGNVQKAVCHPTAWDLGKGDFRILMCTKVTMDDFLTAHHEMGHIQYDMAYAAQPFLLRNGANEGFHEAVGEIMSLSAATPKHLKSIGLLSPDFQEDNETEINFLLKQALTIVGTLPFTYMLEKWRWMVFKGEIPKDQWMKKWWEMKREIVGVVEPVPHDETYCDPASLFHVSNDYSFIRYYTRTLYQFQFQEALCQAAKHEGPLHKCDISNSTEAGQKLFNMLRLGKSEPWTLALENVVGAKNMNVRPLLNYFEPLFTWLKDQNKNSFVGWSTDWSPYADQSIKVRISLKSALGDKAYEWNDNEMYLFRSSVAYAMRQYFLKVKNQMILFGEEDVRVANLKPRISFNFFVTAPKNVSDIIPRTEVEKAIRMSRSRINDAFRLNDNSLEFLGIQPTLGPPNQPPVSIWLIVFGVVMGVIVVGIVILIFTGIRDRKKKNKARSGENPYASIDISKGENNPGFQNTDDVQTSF

Row | SMILES | Radiometabolites in kidney homogenates (FVB mice) | Intact radiopeptide ([1]; 1 h) | Intact radiopeptide ([1]; 3 h) | Intact radiopeptide ([1]; 24 h) | Intact radiopeptide in human blood plasma ([2]; whole incubation period of 24 h) | Degradation products (partial radiolysis) ([1]; saline, 24 h incubation) | Kd (ACE) | Release of gallium-67 from the chelator in blood plasma (FVB mice) | Released gallium-67 in human blood plasma ([2]; 24 h) | Kd (ACE2)
1 | CC(=O)N[C@@H](CCCCNC(=O)CCC(C(=O)O)N1CCN(CC(=O)O)CCN(CC(=O)O)CC1)C(=O)NCC(=O)N[C@@H](CC(=O)O)C(=O)N[C@@H](Cc1ccc(O)cc1)C(=O)N[C@@H](CO)C(=O)N[C@@H](Cc1c[nH]cn1)C(=O)N[C@H]1CSSC[C@@H](C(=O)N[C@H](C(=O)N[C@@H](Cc2ccc(O)cc2)C(=O)N2CCC[C@H]2C(=O)N[C@@H](CC(=O)O)C(=O)N2CCC[C@H]2C(=O)N[C@@H](CCC(=O)O)C(=O)NCC(=O)NCC(=O)NCC(N)=O)[C@@H](C)O)NC(=O)[C@H](CCCCN)NC(=O)[C@H](Cc2c[nH]c3ccccc23)NC(=O)[C@H](Cc2c[nH]c3ccccc23)NC(=O)[C@@H]2CCCN2C(=O)[C@H](Cc2ccc(O)cc2)NC(=O)[C@H](Cc2ccc(O)cc2)NC(=O)[C@H](CCCNC(=N)N)NC(=O)[C@H](CC(C)C)NC(=O)[C@@H]2CCCN2C(=O)[C@H](CO)NC1=O (some centres unmarked) [[^67Ga]Ga-NODAGA-DX600, metal not drawn] (Ac-K(NODAGA)GDYSHCSPLRYYPWWKCTYPDPEGGG-NH2; disulfide 7-18) | ~ 90% | ≥99% | ≥99% | ≥99% | > 99% |  |  |  |  | 
2 | CC[C@H](C)[C@H](NC(=O)[C@H](CCC(N)=O)NC(=O)[C@@H]1CCCN1C(=O)[C@H](CCCNC(=N)N)NC(=O)[C@@H]1CCCN1C(=O)[C@H](Cc1c[nH]c2ccccc12)NC(=O)[C@H](CCC(=O)O)NC(=O)CCCCCNC(=O)CCCCCNC(=O)CN1CCN(CC(=O)O)CCN(CC(=O)O)CCN(CC(=O)O)CC1)C(=O)N1CCC[C@H]1C(=O)N1CCC[C@H]1C(=O)O [[^67Ga]Ga-DOTA-BPP9a, metal not drawn] ({DOTA-Ahx-Ahx}-EWPRPQIPP-OH) |  |  |  |  |  | ~ 11% | 693 ± 354 nM |  |  | 
3 | CC(=O)N[C@@H](CCCCNC(=O)CN1CCN(CC(=O)O)CCN(CC(=O)O)CCN(CC(=O)O)CC1)C(=O)NCC(=O)N[C@@H](CC(=O)O)C(=O)N[C@@H](Cc1ccc(O)cc1)C(=O)N[C@@H](CO)C(=O)N[C@@H](Cc1c[nH]cn1)C(=O)N[C@H]1CSSC[C@@H](C(=O)N[C@H](C(=O)N[C@@H](Cc2ccc(O)cc2)C(=O)N2CCC[C@H]2C(=O)N[C@@H](CC(=O)O)C(=O)N2CCC[C@H]2C(=O)N[C@@H](CCC(=O)O)C(=O)NCC(=O)NCC(=O)NCC(N)=O)[C@@H](C)O)NC(=O)[C@H](CCCCN)NC(=O)[C@H](Cc2c[nH]c3ccccc23)NC(=O)[C@H](Cc2c[nH]c3ccccc23)NC(=O)[C@@H]2CCCN2C(=O)[C@H](Cc2ccc(O)cc2)NC(=O)[C@H](Cc2ccc(O)cc2)NC(=O)[C@H](CCCNC(=N)N)NC(=O)[C@H](CC(C)C)NC(=O)[C@@H]2CCCN2C(=O)[C@H](CO)NC1=O [[^67Ga]Ga-DOTA-DX600, metal not drawn] (Ac-K(DOTA)GDYSHCSPLRYYPWWKCTYPDPEGGG-NH2; disulfide 7-18) | ~ 93% |  |  |  |  |  |  | 3.5 % of the total activity determined in the blood | > 30% | 98 ± 10 nM
